In patent US6215002A, “Pyrrolopyrrolone derivatives as inhibitors of neutrophil elastase” (priority 1996, dated 2001):
Counter-ions that a name gives are not always drawn.

target: T1, human neutrophil elastase (Homo sapiens, UniProt P08246); assay: In vitro assay of human neutrophil elastase (HNE); assay type: biochemical; settings: 118 nM purified human neutrophil elastase, pH 8.6, 15 min incubation at 30° C., MeO-succinyl-alanyl-alanyl-prolyl-valyl-p-nitroanilide substrate; read-out: HNE IC50
T1 sequence (P08246 30-267): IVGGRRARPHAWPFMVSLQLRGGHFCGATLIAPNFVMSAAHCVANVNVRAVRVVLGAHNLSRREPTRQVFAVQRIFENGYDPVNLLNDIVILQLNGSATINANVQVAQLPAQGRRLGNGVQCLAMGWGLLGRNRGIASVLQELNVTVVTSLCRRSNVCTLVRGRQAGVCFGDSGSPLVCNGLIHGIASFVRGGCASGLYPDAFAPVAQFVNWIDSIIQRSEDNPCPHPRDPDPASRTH
Procedure: In Vitro Assays of Human Neutrophil Elastase
118 nM purified human neutrophil elastase
Suitable concentrations of compound under test diluted with water from a 10 mM stock solution in dimethylsulphoxide. Values above are final concentrations after the addition of substrate solution (see below).
The mixture above is incubated for fifteen minutes at 30° C. at which time the remaining elastase activity is measured for 10 minutes in a BioTek 340i plate-reader, after the addition of 0.6 mM MeO-succinyl-alanyl-alanyl-prolyl-valyl-p-nitroanilide. The rate of increase in absorbance at 405 nm is proportional to elastase activity. Enzyme activity is plotted against concentration of inhibitor and an IC50 determined using curve fitting software.
1. The compounds were tested in the in vitro elastase test described earlier in the description.

First: CCC[C@H]1C(=O)N(S(C)(=O)=O)[C@H]2CCN(S(=O)(=O)c3ccc(C(=O)N4CCN(C)CC4)cc3)[C@H]12 (relative stereo) [Example 127, rel-(3R,3aR,6aS)-1-Methanesulfonyl-4-[4-(4-methyl-piperazine-1-carbonyl)-benzenesulfonyl]-3-propyl-hexahydro-pyrrolo[3,2-b]pyrrol-2-one hydrochloride]
Second: CCC[C@H]1C(=O)N(S(=O)(=O)c2ccc3ccccc3c2)[C@H]2CCN(S(=O)(=O)CCCN3CCN(C)CC3)[C@H]12 (relative stereo) [Example 14, rel-(3R,3aR,6aS)-4-[3-(4-Methyl-piperazin-1-yl)-propane-1-sulfonyl-1-(naphthalene-2-sulfonyl)-3-propyl-hexahydro-pyrrolo[3,2-b]pyrrol-2-one]
The IC50 of the first is 4.8-fold lower: 0.04 µM for the first, 0.193 µM for the second.

Going from `C=CC[C@@H]1C(=O)N(S(=O)(=O)c2ccc3ccccc3c2)[C@@H]2CCN(C(=O)OCc3ccccc3)[C@@H]12` [Example 53, (3aR,6S,6aS)-6-Allyl-4-(naphthalene-2-sulfonyl)-5-oxo-hexahydro-pyrrolo[3,2-n]pyrrole-1-carboxylic acid benzyl ester] to `CCC[C@H]1C(=O)N(S(=O)(=O)c2cccc3ccccc23)[C@H]2CCN(S(=O)(=O)Cc3cccc(-c4nn[nH]n4)c3)[C@H]12` (relative stereo) [Example 32, rel-(3R,3aR,6aS)-1-(Naphthalene-1-sulfonyl)-3-propyl-4-[3-(1H-tetrazol-5-yl)-phenylmethanesulfonyl]-hexahydro-pyrrol[3,2-b]pyrrol-2-one], the IC50 rises from 0.143 µM to 0.286 µM (2-fold). The first is the more potent here.

`CCC[C@H]1C(=O)N(S(C)(=O)=O)[C@H]2CCN(C(=O)c3ccccc3)[C@H]12` (relative stereo) [Example 233, rel-(3R,3aR,6aS)-4-Benzoyl-1-methanesulfonyl-3-propyl-hexahydro-pyrrolo[3,2-b]pyrrol-2-one] and `CCC[C@H]1C(=O)N(S(C)(=O)=O)[C@H]2CCN(C(=O)CCCCCN(C)c3ccccc3)[C@H]12` (relative stereo) [Example 81, rel-(3R,3aR,6aS)-1-Methanesulfonyl-4-[6-(methyl-phenyl-amino)-hexanoyl]-3-propyl-hexahydro-pyrrolo[3,2-b]pyrrol-2-one hydrochloride] are within 1.5-fold of each other in IC50: 0.062 µM for the first, 0.067 µM for the second.

Going from `CCC[C@H]1C(=O)N(S(C)(=O)=O)[C@H]2CCN(C(=O)CCCN(C)C)[C@H]12` (relative stereo) [Example 85, rel-(3R,3aR,6aS)-4-(4-Dimethylamino-butyryl)-1-methanesulfonyl-3-propyl-hexahydro-pyrrolo[3,2-b]pyrrol-2-one DL-tartrate] to `CCC[C@H]1C(=O)N(S(C)(=O)=O)[C@H]2CCN(C(=O)CCN3C(C)CCCC3C)[C@H]12` (relative stereo) [Example 92, rel-(3R,3aR,6aS)-4-[3-(2,6-Dimethyl-piperidin-1-yl)-propionyl]-1-methanesulfonyl-3-propyl-hexahydro-pyrrolo[3,2-b]pyrrol-2-one hydrochloride], the IC50 falls from 0.182 µM to 0.07 µM (2.6-fold).

`CCC[C@H]1C(=O)N(S(C)(=O)=O)[C@H]2CCN(C(=O)CCCCCCCCCN3CCCCCC3)[C@H]12` (relative stereo) [Example 66, rel-(3R,3aR,6aS)-4-(10-Azepin-1-yl-decanoyl)-1-methanesulfonyl-3-propyl-hexahydro-pyrrolo[3,2-b]pyrrol-2-one hydrochloride] and `CCC[C@H]1C(=O)N(S(C)(=O)=O)[C@H]2CCN(C(=O)CCCCCCCCCN3CCOCC3)[C@H]12` (relative stereo) [Example 64, rel-(3R,3aR,6aS)-1-Methanesulfonyl-4-(10-morpholin-4-yl-decanoyl)-3-propyl-hexahydro-pyrrolo[3,2-b]pyrrol-2-one DL-tartrate] are within 1.5-fold of each other in IC50: 0.034 µM for the first, 0.026 µM for the second.

`CCC[C@H]1C(=O)N(S(C)(=O)=O)[C@H]2CCN(C(=O)CN3CCCCC3)[C@H]12` (relative stereo) [Example 100, rel-(3R,3aR,6aS)-1-Methanesulfonyl-4-(piperidin-1-yl-acetyl)-3-propyl-hexahydro-pyrrol[3,2-b]pyrrol-2-one hydrochloride] was tested, and the IC50 was 0.65 µM.
